Laboratory results: patent US7015207B2, “Use of N-acetyl-D-glucosamine in the manufacture of pharmaceutical useful for preventing and treating sexual disorder” (Third Military Medical University, Chinese People's …, priority 2001, dated 2006)

Tests used:
Proteus Mirabilis = test: Promoting wave test (bacterial bio-wave growth model); assay type: cell-based; conditions: final concentration of 0.5% on LB plate, 37° C.
Description: The following experimental examples are used to illustrate the promoting wave function, low toxicity and effectiveness for preventing and treating the sexual disfunction of the compound of the present invention (the compound of formula (I)). • I. Promoting wave test of the compound of formula (I) • 1. Experimental materials and method: • 1.1 Samples: pure compound of formula (I) • 1.2 Experimental materials: […]
Strain: Proteus Mirabilis (which should comply with the following biological reaction characteristics: dynamics (+), urease (+), lactose (−), glucose (+), H2S (−), phenylalanine deaminase (+).
Culture medium: modified LB culture medium (the component of the composition are: trytones of 1%, yeast extract of 0.5%, sodium chloride 1%, glucose of 0.1%, TTC of 0.002% and pH=7.2˜7.4). • 1.3 Experimental method:
Experimental results and evaluation:
The experiment adopts a bio-wave model which is used to research the promoting wave function of the compound of formula (I). […] Toxicological test of the compound of formula (I), including: • 1. acute toxicity test: including tests of administrating medicine by oral, intravenous injection and maximum limit amount for administration; • 2. […]

sexual disfunction [1] = test: Clinic tests in male patients with sexual disfunction; assay type: in vivo, human; conditions: two weeks
Method: 32 examples of male patients were picked out, who had been repeatedly treated for sexual disfunction with current treatment method, but these treatments were failed, the patients are classified clinically into heavy, medium and light degree disease, separately administrated with N-acetyl-D-glucosamine in the form of capsule by oral (500 mg/day) and alcoholic solution (50 mg/1000 ml) by oral (10 ml/day), using two weeks as a period of treatment, and before and after the administration, and comparing the condition of the patient's symptom by detecting luteinizing hormone (LH), follicular stimulating hormone (FSH), prolactin (PRL), testosterone (T), estradiol (E2) and local blood flux. […] After treatment, the curative effect was steady and could be maintained for a long time.

sexual disfunction [2] = test: Test for volunteers (voluntary patient with disfunction for more than ten years); assay type: in vivo, human; conditions: one voluntary patient, 12 capsules (500 mg/grain) by oral in three days
[3] = 32 male patients, capsule 500 mg/day or alcoholic solution 10 ml/day by oral

Question: What does the source list for CC(=O)N[C@@H]1[C@@H](O)[C@H](O)[C@@H](CO)O[C@H]1O [N-acetyl-D-glucosamine]?
Answer: promoting wave function (wave pattern of concentric rings compared with control) (Proteus Mirabilis): many fine waves on each ring emerged; cure rate (sexual disfunction [1]; [3]): 72%; total effective rate (sexual disfunction [1]; [3]): 90%; patients in whom treatment failed (sexual disfunction [1]; of 32 male patients, oral): 2 patients; patients turned from heavy and medium degree into light degree (sexual disfunction [1]; of 32 male patients, oral): 7 patient; patients who became normal after treatment (sexual disfunction [1]; of 32 male patients, oral): 23 patients; duration of the effect (sexual disfunction [2]): keep normal over two years; sexual function after treatment (sexual disfunction [2]): sexual function was recovered to normal
